Experimental data taken from US10434112B2, “Use of agonists of formyl peptide receptor 2 for treating dermatological diseases” (Allergan, Inc., priority 2013, dated 2019).

The molecules below were run against human FPR2 receptor (Homo sapiens (Human), UniProt P25090) (assay: FLIPR Ca+2 response in HEK-Gα16 cells stably expressing the human FPR2 receptor). Conditions: Table 4.
Assay type: cell-based
Parameters: FPR2 (% eff): unit not given here
Experimental: FLIPR: HEK-Gα16 cells stably expressing the human FPR2 receptor was utilized. Cells were plated into 384-well poly-D-lysine coated plates at a density of 18,000 cells per well one day prior to use. The growth media was DMEM medium supplemented with 10% fetal bovine serum (FBS), 1% antibiotic-antimycotic, 50 μg/ml hygromycin, and 400 μg/ml geneticin. On the day of the experiment, the cells were washed twice with Hank's Balanced Salt Solution supplemented with 20 mM HEPES (HBSS/hepes buffer). The cells were then dye loaded with 2 μM Fluo-4 diluted in the HBSS/Hepes buffer and incubated at 37° C. for 40 minutes. Extracellular dye was removed by washing the cell plates four times prior to placing the plates in the FLIPR (Fluorometric Imaging Plate Reader, Molecular Devices). Ligands were diluted in HBSS/Hepes buffer and prepared in 384-well microplates. Data for Ca^+2 responses were obtained in relative fluorescence units.

Sequence of human FPR2 receptor (P25090 whole entry): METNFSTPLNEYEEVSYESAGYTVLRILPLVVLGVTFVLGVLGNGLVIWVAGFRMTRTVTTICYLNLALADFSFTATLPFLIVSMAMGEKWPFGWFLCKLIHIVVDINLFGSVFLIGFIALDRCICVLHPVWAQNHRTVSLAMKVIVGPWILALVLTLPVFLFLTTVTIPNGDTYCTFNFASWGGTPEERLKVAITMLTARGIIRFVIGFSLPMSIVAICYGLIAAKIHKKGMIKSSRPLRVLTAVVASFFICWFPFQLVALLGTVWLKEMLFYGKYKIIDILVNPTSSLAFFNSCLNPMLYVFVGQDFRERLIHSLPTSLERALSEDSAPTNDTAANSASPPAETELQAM

How did the EC50 turn out when `O=C(Nc1ccc(Br)cc1)[C@@H]1C2CCC([C@@H]1C(=O)O)C21CC1` (single isomer, unassigned) [Compound 44] was run?
Its EC50 is less than 1 nM.

For `NC(=O)C1C(C(=O)Nc2ccc(Br)cc2)C2CCC1C21CC1` (single isomer, unassigned; (-)) [Compound 45, (−) N-(4-bromophenyl)spiro[bicyclo [2.2.1]heptane-7,1′-cyclopropane]-2,3-dicarboxamide], which EC50 is on record?
Its EC50 is less than 1 nM.

For `O=C(O)CNC(=O)[C@H](Cc1c[nH]c2ccccc12)NC(=O)Nc1ccc(Br)cc1` (stereo in doubt) [Compound 150, {[2-{[(4-bromophenyl)carbamoyl]amino}-3-(1H-indol-3-yl)propanoyl]amino}acetic acid], which EC50 is on record?
The EC50 was 1.4 nM.

`CSc1ccc(NC(=O)C2C(C(=O)O)C3CCC2C32CC2)cc1` (stereo not drawn) [Compound 29, 3-{[4-(methylsulfanyl)phenyl]carbamoyl}spiro[bicyclo[2.2.1]heptane-7,1′-cyclopropane]-2-carboxylic acid] was tested. Which EC50 did it give?
The EC50 was 7 nM.

Same assay, conditions: Table 4; value in brackets, given mostly as fraction

For `O=C(O)[C@@H]1C2CCC([C@@H]1C(=O)Nc1ccc(Br)cc1)C21CC1` (relative stereo) [Compound 14, rel-(2R,3S)-3-[(4-bromophenyl)carbamoyl]spiro [bicyclo[2.2.1]heptane-7,1′-cyclopropane]-2-carboxylic acid], which “FPR2 (% eff)” value is on record?
The value was 0.90.

How did the “FPR2 (% eff)” value turn out when `O=C(Nc1ccc(Br)cc1)[C@@H]1C2CCC([C@@H]1C(=O)O)C21CC1` (single isomer, unassigned) [Compound 44] was run?
The value was 0.98.

For `NC(=O)C1C(C(=O)Nc2ccc(Br)cc2)C2CCC1C21CC1` (single isomer, unassigned; (-)) [Compound 45, (−) N-(4-bromophenyl)spiro[bicyclo [2.2.1]heptane-7,1′-cyclopropane]-2,3-dicarboxamide], which “FPR2 (% eff)” value is on record?
The value was 0.91.

For `O=C(O)CNC(=O)[C@H](Cc1c[nH]c2ccccc12)NC(=O)Nc1ccc(Br)cc1` (stereo in doubt) [Compound 150, {[2-{[(4-bromophenyl)carbamoyl]amino}-3-(1H-indol-3-yl)propanoyl]amino}acetic acid], which FPR2 (% eff) is on record?
Its FPR2 (% eff) is 98.

For `CCC1(CCc2ccccc2)NC(=O)N(NC(=O)Nc2ccc(Br)cc2)C1=O` (stereo not drawn) [Compound 1, 1-(4-bromophenyl)-3-[4-ethyl-2,5-dioxo-4-(2-phenylethyl)imidazolidin-1-yl]urea], which “FPR2 (% eff)” value is on record?
The value was 0.96.

Which “FPR2 (% eff)” value does the source give for `CCC[C@H](NC(=O)Nc1ccc(Br)cc1)C(=O)NCC(=O)O` [Compound 2, {[(2S)-2-{[(4-bromophenyl)carbamoyl]amino}pentanoyl]amino}acetic acid] here?
The value was 0.91.

For `CC[C@H](C)[C@H](NC(=O)Nc1ccc(Br)cc1F)C(=O)O` [Compound 5, (2S,3S)-2-{[(4-bromo-2-fluorophenyl)carbamoyl]amino}-3-methylpentanoic acid], which “FPR2 (% eff)” value is on record?
Its value is 0.96.

How did the “FPR2 (% eff)” value turn out when `CC(C)C[C@H](NC(=O)Nc1ccc(Br)cc1)C(=O)NC(C)(C)C(=O)O` [Compound 6, 2-{[(2S)-2-{[(4-bromophenyl)carbamoyl]amino}-4-methylpentanoyl]amino}-2-methylpropanoic acid] was run?
Its value is 0.91.

`CC(C)C[C@H](NC(=O)Nc1ccc(Br)cc1)C(=O)O` [Compound 9, (2S)-2-{[(4-bromophenyl)carbamoyl]amino}-4-methylpentanoic acid] was tested. Which “FPR2 (% eff)” value did it give?
Its value is 0.77.

Which “FPR2 (% eff)” value does the source give for `O=C(Nc1ccc(Br)cc1)NC(Cc1ccccc1)C(=O)NC1CCCCNC1=O` (stereo not drawn) [Compound 10, 2-{[(4-bromophenyl)carbamoyl]amino}-N-(2-oxoazepan-3-yl)-3-phenylpropanamide] here?
Its value is 0.89.

`O=C(O)C1C(C(=O)Nc2ccc(I)cc2)C2C=CC1C21CC1` (stereo not drawn) [Compound 11, 3-[(4-iodophenyl)carbamoyl]spiro [bicyclo[2.2.1]heptane-7,1′-cyclopropane]-5-ene-2-carboxylic acid] was tested. Which “FPR2 (% eff)” value did it give?
The value was 1.00.

With `O=C(O)C1C(C(=O)Nc2ccc(Br)cc2)C2C=CC1C21CC1` (stereo not drawn) [Compound 12, 3-[(4-bromophenyl)carbamoyl]spiro [bicyclo[2.2.1]heptane-7,1′-cyclopropane]-5-ene-2-carboxylic acid] as the molecule, how does the “FPR2 (% eff)” value read?
The value was 0.97.

`CC(=O)c1ccc(NC(=O)Nc2ccc3c(c2)C(=O)N(CCc2c[nH]cn2)C(c2ccc(C#N)cc2)C3)cc1` (stereo not drawn) [Compound 13, 1-(4-acetylphenyl)-3-{3-(4-cyanophenyl)-2-[2-(1H-imidazol-4-yl)ethyl]-1-oxo-1,2,3,4-tetrahydroisoquinolin-7-yl}urea] was tested. Which “FPR2 (% eff)” value did it give?
Its value is 0.80.

Which “FPR2 (% eff)” value does the source give for `O=C(O)C1C(C(=O)Nc2ccc(I)cc2)C2CCC1C21CC1` (stereo not drawn) [Compound 15, 3-[(4-iodophenyl)carbamoyl]spiro [bicyclo[2.2.1]heptane-7,1′-cyclopropane]-2-carboxylic acid] here?
The value was 0.87.

With `CSc1ccc(NC(=O)Nc2ccc3c(c2)C(=O)N(CCCN)C(c2ccc(C#N)cc2)C3)cc1` (stereo not drawn) [Compound 16, 1-[2-(3-aminopropyl)-3-(4-cyanophenyl)-1-oxo-1,2,3,4-tetrahydroisoquinolin-7-yl]-3-[4-(methylsulfanyl)phenyl]urea] as the molecule, how does the “FPR2 (% eff)” value read?
Its value is 0.70.

How did the “FPR2 (% eff)” value turn out when `CSc1ccc(NC(=O)Nc2ccc3c(c2)C(=O)N(CCc2c[nH]cn2)C(c2ccc(C#N)cc2)C3)cc1` (stereo not drawn) [Compound 17, 1-{3-(4-cyanophenyl)-2-[2-(1H-imidazol-4-yl)ethyl]-1-oxo-1,2,3,4-tetrahydroisoquinolin-7-yl}-3-[4-(methylsulfanyl)phenyl]urea] was run?
Its value is 0.92.

For `CS(=O)(=O)c1ccc(NC(=O)Nc2ccc3c(c2)C(=O)N(CCCN)C(c2ccc(C#N)cc2)C3)cc1` (stereo not drawn) [Compound 18, 1-[2-(3-aminopropyl)-3-(4-cyanophenyl)-1-oxo-1,2,3,4-tetrahydroisoquinolin-7-yl]-3-[4-(methylsulfonyl)phenyl]urea], which “FPR2 (% eff)” value is on record?
Its value is 0.86.

For `CS(=O)(=O)c1ccc(NC(=O)Nc2ccc3c(c2)C(=O)N(CCc2c[nH]cn2)C(c2ccc(C#N)cc2)C3)cc1` (stereo not drawn) [Compound 19, 1-{3-(4-cyanophenyl)-2-[2-(1H-imidazol-4-yl)ethyl]-1-oxo-1,2,3,4-tetrahydroisoquinolin-7-yl}-3-[4-(methylsulfonyl)phenyl]urea], which “FPR2 (% eff)” value is on record?
The value was 1.00.

With `CSc1ccc(NC(=O)Nc2ccc3c(c2)C(=O)N(CCc2c[nH]cn2)C(c2ccco2)C3)cc1` (stereo not drawn) [Compound 23, 1-{3-(furan-2-yl)-2-[2-(1H-imidazol-4-yl)ethyl]-1-oxo-1,2,3,4-tetrahydroisoquinolin-7-yl}-3-[4-(methylsulfanyl)phenyl]urea] as the molecule, how does the “FPR2 (% eff)” value read?
The value was 0.83.

`C[S+]([O-])c1ccc(NC(=O)Nc2ccc3c(c2)C(=O)N(CCc2c[nH]cn2)C(c2ccc(F)cn2)C3)cc1` (stereo not drawn) [Compound 24, 1-{3-(5-fluoropyridin-2-yl)-2-[2-(1H-imidazol-4-yl)ethyl]-1-oxo-1,2,3,4-tetrahydroisoquinolin-7-yl}-3-[4-(methylsulfinyl)phenyl]urea] was tested. Which “FPR2 (% eff)” value did it give?
Its value is 0.93.

Which “FPR2 (% eff)” value does the source give for `CS(=O)(=O)c1ccc(NC(=O)Nc2ccc3c(c2)C(=O)N(CCc2c[nH]cn2)C(c2ccc(F)cn2)C3)cc1` (stereo not drawn) [Compound 25, 1-{3-(5-fluoropyridin-2-yl)-2-[2-(1H-imidazol-4-yl)ethyl]-1-oxo-1,2,3,4-tetrahydroisoquinolin-7-yl}-3-[4-(methylsulfonyl)phenyl]urea] here?
Its value is 1.0.

`CSc1ccc(NC(=O)Nc2ccc3c(c2)C(=O)N(CCc2c[nH]cn2)C(c2ccc(Cl)o2)C3)cc1` (stereo not drawn) [Compound 27, 1-{3-(5-chlorofuran-2-yl)-2-[2-(1H-imidazol-4-yl)ethyl]-1-oxo-1,2,3,4-tetrahydroisoquinolin-7-yl}-3-[4-(methylsulfanyl)phenyl]urea] was tested. Which “FPR2 (% eff)” value did it give?
Its value is 0.81.

For `CSc1ccc(NC(=O)Nc2ccc3c(c2)C(=O)N(CCc2c[nH]cn2)C(c2ccc(Cl)nc2)C3)cc1` (stereo not drawn) [Compound 28, 1-{3-(6-chloropyridin-3-yl)-2-[2-(1H-imidazol-4-yl)ethyl]-1-oxo-1,2,3,4-tetrahydroisoquinolin-7-yl}-3-[4-(methylsulfanyl)phenyl]urea], which “FPR2 (% eff)” value is on record?
The value was 0.89.

For `CSc1ccc(NC(=O)C2C(C(=O)O)C3CCC2C32CC2)cc1` (stereo not drawn) [Compound 29, 3-{[4-(methylsulfanyl)phenyl]carbamoyl}spiro[bicyclo[2.2.1]heptane-7,1′-cyclopropane]-2-carboxylic acid], which “FPR2 (% eff)” value is on record?
Its value is 0.96.

How did the “FPR2 (% eff)” value turn out when `NC(=O)C1C(C(=O)Nc2ccc(Br)cc2)C2CCC1C21CC1` (stereo not drawn) [Compound 30, N-(4-bromophenyl)spiro[bicyclo[2.2.1]heptane-7,1′-cyclopropane]-2,3-dicarboxamide] was run?
Its value is 0.96.

How did the “FPR2 (% eff)” value turn out when `CSc1ccc(NC(=O)Nc2ccc3c(c2)C(=O)N(CCc2c[nH]cn2)C(c2ccc(Cl)cn2)C3)cc1` (stereo not drawn) [Compound 32, 1-{3-(5-chloropyridin-2-yl)-2-[2-(1H-imidazol-4-yl)ethyl]-1-oxo-1,2,3,4-tetrahydroisoquinolin-7-yl}-3-[4-(methylsulfanyl)phenyl]urea] was run?
Its value is 0.91.

Which “FPR2 (% eff)” value does the source give for `CS(=O)(=O)c1ccc(NC(=O)Nc2ccc3c(c2)C(=O)N(CCc2c[nH]cn2)C(c2ccc(Cl)cn2)C3)cc1` (stereo not drawn) [Compound 33, 1-{3-(5-chloropyridin-2-yl)-2-[2-(1H-imidazol-4-yl)ethyl]-1-oxo-1,2,3,4-tetrahydroisoquinolin-7-yl}-3-[4-(methylsulfonyl)phenyl]urea] here?
The value was 0.99.

Which “FPR2 (% eff)” value does the source give for `CSc1ccc(NC(=O)Nc2ccc3c(c2)C(=O)N(CCCN)[C@@H](c2ccc(C#N)cc2)C3)cc1` [Compound 36, (+)1-[(3R)-2-(3-aminopropyl)-3-(4-cyanophenyl)-1-oxo-1,2,3,4-tetrahydroisoquinolin-7-yl]-3-[4-(methylsulfanyl)phenyl]urea] here?
Its value is 0.97.

With `CSc1ccc(NC(=O)C2C(C(N)=O)C3CCC2C3(C)C)cc1` (stereo not drawn) [Compound 37, 7,7-dimethyl-N-[4-(methylsulfanyl)phenyl]bicyclo [2.2.1]heptane-2,3-dicarboxamide] as the molecule, how does the “FPR2 (% eff)” value read?
The value was 0.85.

Which “FPR2 (% eff)” value does the source give for `NC(=O)C1C(C(=O)Nc2ccc(I)cc2)C2CCC1C21CC1` (stereo not drawn) [Compound 38, N-(4-iodophenyl)spiro[bicyclo[2.2.1]heptane-7,1′-cyclopropane]-2,3-dicarboxamide] here?
Its value is 0.95.

How did the “FPR2 (% eff)” value turn out when `NC(=O)C1C(C(=O)Nc2ccc(I)cc2)C2C=CC1C21CC1` (stereo not drawn) [Compound 39, N-(4-iodophenyl)spiro[bicyclo[2.2.1]heptane-7,1′-cyclopropane]-5-ene-2,3-dicarboxamide] was run?
The value was 0.90.

How did the “FPR2 (% eff)” value turn out when `C[S+]([O-])c1ccc(NC(=O)Nc2ccc3c(c2)C(=O)N(CCCNC(=O)OC(C)(C)C)[C@@H](c2ccc(C#N)cc2)C3)cc1` (stereo partly drawn) [Compound 40, (+) tert-butyl {3-[(3R)-3-(4-cyanophenyl)-7-({[4-(methylsulfinyl)phenyl]carbamoyl}amino)-1-oxo-3,4-dihydroisoquinolin-2(1H)-yl]propyl}carbamate] was run?
Its value is 0.91.
